{
  "source": "patent US5428139A",
  "about": "“Bicyclopolyazamacrocyclophosphonic acid complexes for use as radiopharmaceuticals” (The Dow Chemical Company, priority 1991, dated 1995)",
  "key": {"[1]": {"assay": "Biodistribution: percent of injected dose in tissues", "assay_type": "in vivo, Sprague Dawley rats", "conditions": "for % injected dose in bone: 100 μl complex i.v. via tail vein, bone estimated as femur x 25; for % injected dose in blood: blood assumed 7% of body weight; for % injected dose in muscle: muscle assumed 43% of body weight", "protocol": "Sprague Dawley rats were allowed to acclimate for five days then injected with 100 μl of the complex solution via a tail vein. The rats weighed between 150 and 200 g at the time of injection. After 30 min. the rats were killed by cervical dislocation and dissected. The amount of radioactivity in each tissue was determined by counting in a NaI scintillation counter coupled to a multichannel analyzer. The counts were compared to the counts in 100 μl standards in order to determine the percentage of the dose in each tissue or organ.\nThe percent dose in blood was estimated assuming blood to be 7% of the body weight. The percent dose in bone was estimated by multiplying the percent dose in the femur by 25. The percent dose in muscle was estimated assuming muscle to be 43% of the body weight."}, "[2]": {"assay": "Percent metal as a complex (Sephadex column, ion exchange method)", "assay_type": "physicochemical", "conditions": "1:1 ligand/metal, eluted with 4:1 saline (0.85% NaCl/NH4 OH)", "protocol": "A stock ^153 SmCl3 solution was prepared by adding 2 μL of 3×10^-4 M ^153 SmCl3 in 0.1N HCl to 2 mL of a 3×10^-4 M SmCl3 carrier solution. Appropriate ligand solutions were then prepared in deionized water. The 1:1 ligand/metal complexes were then prepared by combining the ligands (dissolved in 100-500 μL of deionized water) with 2 mL of the stock ^153 SmCl3 solution, followed by through mixing to give an acidic solution (pH=2). The pH of the solution was then raised to 7.0 using 0.1N NaOH. The percent metal as a complex was then determined by passing a sample of the complex solution through a Sephadex™ G-50 column, eluting with 4:1 saline ([…]) and collecting 2×3 mL fractions. The amount of radioactivity in the combined elutions was then compared with that left on the resin (non-complexed metal is retained on the resin). […]\nA solution of the ligand of Example 1 was prepared by dissolving 3.8 mg of ligand/0.517 mL of deionized water (pH=2). […] After thorough mixing, the percent metal as a complex was determined by passing a sample of the complex solution through a Sephadex™ column, eluting with 4:1 saline (0.85% NaCl/NH4 OH), and collecting 2×3 mL fractions. The amount of radioactivity in the combined elutions was then compared with that left on the resin. […] By this method complexation was determined to be 98%. […] The pH stability was then determined using the General Procedure above."}, "[3]": {"conditions": "patients with metastatic bone lesions; cited from earlier work"}, "[4]": {"conditions": "Sprague Dawley rats, 30 min, average"}, "[5]": {"conditions": "Sprague Dawley rats, tail vein, 30 min, average"}, "[6]": {"conditions": "rats, 30 min, % dose/G printed for bone to blood ratio"}},
  "data": [
    {"molecule": "O=P(O)(O)CN1CCN(CP(=O)(O)O)Cc2cccc(n2)CN(CP(=O)(O)O)CC1.[90Y]", "note": "[^90 Y-PCTMP, complex of ^90 Y-3,6,9,15-tetraazabicyclo[9.3.1]pentadeca-1(15),11,13-triene-3,6,9-trimethylenephosphonic acid]", "values": [
      {"measurement": "bone to blood ratio", "setting": "[1]; % dose/G, rats, 30 min", "value": 140},
      {"measurement": "% injected dose in bone", "setting": "[1]; [4]", "value": 29, "unit": "%"},
      {"measurement": "% injected dose in kidney", "setting": "[1]; [5]", "value": 0.36, "unit": "%"},
      {"measurement": "% injected dose in liver", "setting": "[1]; [5]", "value": 0.21, "unit": "%"},
      {"measurement": "% injected dose in blood", "setting": "[1]; [5]", "value": 0.18, "unit": "%"},
      {"measurement": "% injected dose in muscle", "setting": "[1]; [5]", "value": 0.42, "unit": "%"},
      {"measurement": "bone to liver ratio", "setting": "[1]; [6]", "value": 76},
      {"measurement": "bone to muscle ratio", "setting": "[1]; [6]", "value": 400}
    ]},
    {"molecule": "O=P(O)(O)CN1CCN(CP(=O)(O)O)Cc2cccc(n2)CN(CP(=O)(O)O)CC1.[153Sm]", "note": "[^153 Sm-PCTMP, complex of ^153 Sm-3,6,9,15-tetraazabicyclo[9.3.1]pentadeca-1(15),11,13-triene-3,6,9-trimethylenephosphonic acid]", "values": [
      {"measurement": "bone localization", "setting": "[1]; 5:1 ligand to metal ratio", "value": "about 60%"},
      {"measurement": "% injected dose in bone", "setting": "[1]; [4]", "value": 60, "unit": "%"},
      {"measurement": "% injected dose in kidney", "setting": "[1]; [5]", "value": 0.38, "unit": "%"},
      {"measurement": "% injected dose in liver", "setting": "[1]; [5]", "value": 2.80, "unit": "%"},
      {"measurement": "% injected dose in spleen", "setting": "[1]; [5]", "value": 0.16, "unit": "%"},
      {"measurement": "% injected dose in blood", "setting": "[1]; [5]", "value": 0.29, "unit": "%"},
      {"measurement": "% injected dose in muscle", "setting": "[1]; [5]", "value": 0.40, "unit": "%"},
      {"measurement": "percent metal as a complex (complexation)", "setting": "[2]", "value": 98, "unit": "%"}
    ]},
    {"molecule": "O=P(O)(O)CN1CCN(CP(=O)(O)O)Cc2cccc(n2)CN(CP(=O)(O)O)CC1.[166Ho]", "note": "[^166 Ho-PCTMP, complex of ^166 Ho-3,6,9,15-tetraazabicyclo[9.3.1]pentadeca-1(15),11,13-triene-3,6,9-trimethylenephosphonic acid]", "values": [
      {"measurement": "% injected dose in bone", "setting": "[1]; [4]", "value": 43, "unit": "%"},
      {"measurement": "% injected dose in kidney", "setting": "[1]; [5]", "value": 0.33, "unit": "%"},
      {"measurement": "% injected dose in liver", "setting": "[1]; [5]", "value": 3.55, "unit": "%"},
      {"measurement": "% injected dose in blood", "setting": "[1]; [5]", "value": 0.12, "unit": "%"},
      {"measurement": "% injected dose in muscle", "setting": "[1]; [5]", "value": 0.34, "unit": "%"}
    ]},
    {"molecule": "Strontium-89", "values": [
      {"measurement": "blood levels", "setting": "[3]", "value": "high"},
      {"measurement": "lesion to normal bone ratios", "setting": "[3]", "value": "low"}
    ]}
  ]
}
